Source: US6951647B2, “T cell binding ligand peptides and method of inducing a cellular immune response” (Cel-Sci Corporation, priority 2001, dated 2005)
Where “and” joins values, the source holds several entries; their conditions need not be identical. Equal values may be shown once.

Legend:
[1] = tested on: modified HGP-30; assay: ELISA antibody screening of sera of immunized mice on modified HGP-30; type: in vivo; settings: for ELISA test antigen Modified HGP-30: day 42 test bleeding
Protocol: Mice in groups (5-10 animals per group as designated) are immunized with the LEAPS constructs (25 μg/dose) of SEQ ID NO's:37, 38 and 39, in 0.2 mL emulsified 1:1 with adjuvant (Seppic's ISA-51 or Corixa's microfluidized MPL S/E) on days 0 and 14. Mice are evaluated by Delayed Type of Hypersensitivity (DTH) by inoculation on day 26 with 20 μl of a solution of saline or mH (SEQ ID NO:6) (25 μg in saline) in the left or right ear respectively. The DTH response is determined by measurement of the ear thickness 48 hours later and expressed as increase in ear thickness (mm) of experimental ear compared to that of the control ear. Individual animal sera are collected for measurement of antibody on day 28, 42, 63 and 77. Sera from individual animals and group pools are evaluated for specific anti-mH antibody, for total antibody, IgG1, IgG2a and IgG3 antibody isotype and cross clade titer at selected time points as indicated. […]

[2] = tested on: D Clade; assay: ELISA cross clade recognition by sera of immunized mice, D Clade; type: in vivo; settings: for ELISA test antigen D Clade: day 42 test bleeding, Group Average
Protocol: (§1) Mice in groups (5-10 animals per group as designated) are immunized with the LEAPS constructs (25 μg/dose) of SEQ ID NO's:37, 38 and 39, in 0.2 mL emulsified 1:1 with adjuvant (Seppic's ISA-51 or Corixa's microfluidized MPL S/E) on days 0 and 14. Mice are evaluated by Delayed Type of Hypersensitivity (DTH) by inoculation on day 26 with 20 μl of a solution of saline or mH (SEQ ID NO:6) (25 μg in saline) in the left or right ear respectively. The DTH response is determined by measurement of the ear thickness 48 hours later and expressed as increase in ear thickness (mm) of experimental ear compared to that of the control ear. Individual animal sera are collected for measurement of antibody on day 28, 42, 63 and 77. Sera from individual animals and group pools are evaluated for specific anti-mH antibody, for total antibody, IgG1, IgG2a and IgG3 antibody isotype and cross clade titer at selected time points as indicated.
The mouse sera for the ELISA was used at a dilution of 1:200. Again, clearly, the construct provides higher signals indicative of higher levels of the antibodies that recognized other clades besides the parental one (Clade B) of mH.
A cross clade analysis for pools of day 42 test bleedings from the same groups as used in Table 3, were obtained and the results are shown in Table 4.

[3] = tested on: modified HGP-30; assay: Delayed Type Hypersensitivity (DTH) ear thickness response with antisera depletion of CD4 or CD8 cells; type: in vivo, Mice
Protocol: as §1
Select immunoglobulin preparations were obtained from Dr. Stephen Hoffmann, Malaria Program, U.S. Navy. […] This allows one to determine some parts of the nature of various cellular (e.g., T-cell) involvement in the early stage of immune system response with the LEAPS peptide-constructs. It is recognized, however, that this is only a temporary event since new cells are continuously being developed from stem cells and the animals become resistant to the reagents.
The animals are pretreated with the antisera as indicated for 5 days before the initial immunization with peptide-construct having SEQ ID NO:37 or SEQ ID NO:39 on […]. No pretreatment is done before the booster immunization on day 14 or DTH on day 26-28. The mice are then inoculated with the test antigen or saline (control) on day 26 in the left and right ears, respectively, and the DTH response is measured on day 28. The difference between the values for the test and saline control ears is calculated for each group of five animals along with the standard error of the mean (sem) and the results are plotted (see FIG. 1). Also shown in FIG. 1 are values for the untreated animals and animals immunized on day 14 only.
The DTH (Delayed Type Hypersensitivity) data is statistically significant with a t-test of 0.05 for SEQ ID NO:39 and anti-CD8. The DTH for pretreatment of SEQ ID NO:37 immunized mice with anti-CD4 was just above the cutoff limit for statistical significance due to a weaker DTH response and small group size.

[4] = tested on: D Clade; assay: ELISA cross clade recognition by sera of immunized mice, D Clade; type: in vivo; settings: day 42 test bleeding, individual mouse
[5] = tested on: E Clade; assay: ELISA cross clade recognition by sera of immunized mice, E Clade; type: in vivo; settings: day 42 test bleeding, individual mouse
[6] = tested on: Peptide G; assay: Specificity analysis for the TCBL carrier, ELISA plates coated with Peptide G; type: in vivo, Mice; settings: individual animal
[7] = day 63 test bleeding, sera 1:200, individual mouse
[8] = Day 14 Injection Only (immunized with construct on day 14 only), average of group of 5 mice
[9] = Treatment Anti CD4, daily for 5 days before immunization, average of group (5 mice)
[10] = Treatment Anti CD8, daily for 5 days before immunization, average of group of 5 mice
[11] = Treatment None, average of group (5 mice), ISA 51 adjuvant
[12] = Treatment Normal rat IgG, daily for 5 days before immunization, average of group (5 mice)

Substance: DGQ EEK AGV VST GLI GGG ATL YSV HQR IDV KDT KEA LEK IEE EQN KS (DGQEEKAGVVSTGLIGGGYLSGANLNL) [SEQ ID NO: 57, Peptide G′ linked by GGG spacer to modified HGP-30 (mH)]
- A 490 1:200 dilution on plates coated with modified HGP-30 ([1]; day 42, first set of groups (animals 4637-4648, 4674-4678), individual animal): 2.178 A 490 and 1.411 A 490 and 2.314 A 490 and 2.555 A 490 and 2.404 A 490 and 2.273 A 490
- A 490 1:200 dilution on plates coated with modified HGP-30 ([1]; day 42, first set of groups, Average): 2.189 A 490
- A 490 1:200 dilution on plates coated with modified HGP-30 ([1]; day 42, second set of groups (animals 4662-4673, 4679-4683), individual animal): 1.968 A 490 and 1.422 A 490 and 1.755 A 490 and 2.450 A 490 and 2.403 A 490 and 1.399 A 490
- A 490 1:200 dilution on plates coated with modified HGP-30 ([1]; day 42, second set of groups, Average): 1.899 A 490
- ELISA test antigen Modified HGP-30 ([1]; group (A), Group Average): 2.433
- ELISA test antigen Modified HGP-30 ([1]; group (A), individual mouse): 2.307 and 1.589 and 2.432 and 2.867 and 2.627 and 2.780
- ELISA test antigen Modified HGP-30 ([1]; group (B), Group Average): 2.672
- ELISA test antigen Modified HGP-30 ([1]; group (B), individual mouse): 2.330 and 2.213 and 2.534 and 3.358 and 3.030 and 2.571
- ELISA signal on modified HGP-30 [1, 7]: 2.737 and 2.471 and 2.569 and 2.093 and 2.512 and 3.115 and 3.153 and 2.922 and 2.236 and 2.534
- ELISA test antigen D Clade ([2]; group (A)): 0.030
- ELISA test antigen D Clade ([2]; group (B)): 0.755
- ELISA signal on D Clade [2, 7]: 1.527 and 0.438 and 0.408 and 0.125 and 1.471 and 0.772 and 1.328 and 1.370 and 0.000 and 0.374
- Left Ear thickness, inoculated day 26 with HGP-30, measured after 48 hours [3, 8]: 0.234 mm
- Right Ear thickness, inoculated day 26 with saline, measured after 48 hours [3, 8]: 0.222 mm
- DTH % increase (L-R)/R ([3]; Day 14 Injection Only, average of group of 5 mice): 5.10%
- Left Ear thickness, inoculated day 26 with HGP-30, measured after 48 hours [3, 9]: 0.252 mm
- Right Ear thickness, inoculated day 26 with saline, measured after 48 hours [3, 9]: 0.237 mm
- DTH % increase (L-R)/R ([3]; Treatment Anti CD4, average of group (5 mice)): 6.10%
- Left Ear thickness, inoculated day 26 with HGP-30, measured after 48 hours [3, 10]: 0.290 mm
- Right Ear thickness, inoculated day 26 with saline, measured after 48 hours [3, 10]: 0.232 mm
- DTH % increase (L-R)/R ([3]; Treatment Anti CD8, average of group of 5 mice): 25.00%
- DTH % increase (L-R)/R ([3]; Treatment None, average of group (5 mice)): 22.10%
- Left Ear thickness, inoculated day 26 with HGP-30, measured after 48 hours [3, 11]: 0.274 mm
- Right Ear thickness, inoculated day 26 with saline, measured after 48 hours [3, 11]: 0.224 mm
- Left Ear thickness, inoculated day 26 with HGP-30, measured after 48 hours [3, 12]: 0.278 mm
- Right Ear thickness, inoculated day 26 with saline, measured after 48 hours [3, 12]: 0.232 mm
- DTH % increase (L-R)/R ([3]; Treatment Normal rat IgG, average of group (5 mice)): 19.90%
- Type of cells required for a DTH response ([3]; cell specific antisera as depletion reagent for the primary immunization (FIG. 1)): requires the presence and presumably activation of CD4+ but not CD8+ cells
- ELISA test antigen D Clade ([4]; group (A)): 0.052 and 0.000 (2×) and 0.010 and 0.003 and 0.114
- ELISA test antigen D Clade ([4]; group (B)): 0.087 and 0.095 and 0.185 and 1.799 and 1.727 and 0.637
- ELISA test antigen E Clade ([5]; group (A)): 0.092 and 0.000 (3×) and 0.018 and 0.101
- ELISA test antigen E Clade ([5]; group (B)): 0.000 (2×) and 0.054 and 0.358 and 0.113 and 0.037
- A 490 1:200 dilution on plates coated with Peptide G ([6]; day 42, first set of groups (animals 4637-4648, 4674-4678)): 0.083 A 490 and 0.054 A 490 and 0.097 A 490 and 0.038 A 490 and 0.087 A 490 and 0.121 A 490
- A 490 1:200 dilution on plates coated with Peptide G ([6]; day 42, second set of groups (animals 4662-4673, 4679-4683)): 0.091 A 490 and 0.024 A 490 and 0.006 A 490 and 0.015 A 490 and 0.126 A 490 and 0.113 A 490
